Reference: patent publication US6866837B2, “Radiolabeled peptides for the diagnosis and treatment of breast and prostate tumors and metastases of such tumors” (Mallinckrodt Inc., priority 1998, dated 2005)
Read-outs that look alike come from different tables or passages of the source.

What was measured:
[1] = test system: bombesin receptor positive prolactinoma 7315b; details: female Lewis rats; visualized by scintigraphy
[2] = rats
[3] = for 2 h after labeling with IN-111 up to 100 Mbq per jj. g; HPLC
[4] = rats; cited from earlier work
[5] = Dynamic gamma camera: clearance and excretion of radioactivity; details: rat, in vivo
[6] = in vivo; details: rat, total radioactivity
[7] = test system: 7315b cells; details: read-out: agonistic activities on bombesin stimulated prolactin secretion, IC50
[8] = test system: bombesin receptors; assay: Receptor autoradiography of human tumor tissue sections with the radioligand; format: binding
Experimental: Various tumor tissue samples, including surrounding tissue, were harvested from human patients and/or human cadavers, and frozen. The samples were cut on a cryostat, mounted on microscope slides, and then stored at −20° C. for […] improve adhesion of the tissue to the slide. The slide-mounted tissue sections were allowed to reach room temperature and preincubated in 50 mmol/1 Tris-HCl, 130 mmol/1 NaCl, 4.7 mmol/1 KCl, 5 mmol/I MgCl2, 1 mmol/l ethylene glycol-bi (b-aminoethylether)-N, N, N′, N′-tetraacetic acid, and 0.5% bovine serum albumin, pH 7.4 (preincubation solution), for 30 min. at 25° C. The slides are then incubated in a solution containing the same medium as the preincubation solution except the bovine serum albumin is omitted, and the following compounds are added: 20000 dpm/100 ml of the radioligand of Example 1, 0.025% bacitracin, 1 mmol/l dithiothreitol, 2 mg/ml chymostatin, and 4 mg/ml leupeptin, pH=6.5. The slides are incubated at room temperature with the radioligand for 150 min., as described by Mantyh et al. (Gasteroenterology, 1994, 107, 1019-30). After the incubation, the slides are rinsed with four washes of 30 sec each in ice-cold preincubation solution, pH 7.4, dipped in ice-cold water, and then quickly dried in a refrigerator under a stream of cold air. The sections are subsequently exposed to a ^3H Ultrofilm for 1 week, to detect the precise location of the radioactivity.
The films were evaluated to determine the ability to distinguish the tumor from the surrounding tissue.

[9] = Breat Cancer Metastases, 5 samples
[10] = Non Small Cell Lung Carcinoma, 34 samples
[11] = Prostate Cancer Metastases, 5 samples
[12] = Small Cell Lung Carcinoma, 10 samples
[13] = Uterus Leomyosarcoma Tumor, 3 samples
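For Tissue RA, Pancreas in this document: radiolabelled ligand targeting bombesin receptors, given by intravenous injection at varied injected mass.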
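For ratio vs. blood, Adrenal in this document: radiolabelled ligand targeting bombesin receptors, given by intravenous injection at varied injected mass.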
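For ratio vs. blood, Colon in this document: radiolabelled ligand targeting bombesin receptors, given by intravenous injection at varied injected mass.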
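For uptake in pancreas and tissues of the GI tract in this document: radiolabelled ligand targeting bombesin receptors, given by intravenous injection at varied injected mass.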

CSCC[C@H](NC(=O)[C@H](CC(C)C)NC(=O)[C@H](Cc1c[nH]cn1)NC(=O)CNC(=O)[C@@H](NC(=O)[C@H](C)NC(=O)[C@H](Cc1c[nH]c2ccccc12)NC(=O)[C@H](CCC(N)=O)NC(=O)[C@H](CC(N)=O)NC(=O)CNC(=O)[C@H](Cc1ccc(O)cc1)NC(=O)[C@H](CCCNC(=N)N)NC(=O)[C@H](CCC(N)=O)NC(=O)[C@@H]1CCCN1C(=O)CN(CCN(CCN(CC(=O)O)CC(=O)O)CC(=O)O)CC(=O)O)C(C)C)C(N)=O [[^111In-DTPA^0, Pro^1, Tyr^4] bombesin, metal not drawn]
uptake in bombesin receptor positive prolactinoma 7315b [1]: Specific uptake
uptake in pancreas and tissues of the GI tract [2]: high and specific uptake
Tissue RA, Pancreas ([2]; 48 h after injection, 0.01 μg): 1.0 % ID/g
ratio vs. blood, Adrenal ([2]; 48 h after injection, 0.01 μg): 34
ratio vs. blood, Colon ([2]; 48 h after injection, 0.01 μg): 85
ratio vs. blood, Pancreas ([2]; 48 h after injection, 0.01 μg): 1210
ratio vs. blood, Stomach ([2]; 48 h after injection, 0.01 μg): 40
ratio vs. blood, Adrenal ([2]; 48 h after injection, 0.025 μg): 30
ratio vs. blood, Colon ([2]; 48 h after injection, 0.025 μg): 64
ratio vs. blood, Pancreas ([2]; 48 h after injection, 0.025 μg): 1217
ratio vs. blood, Stomach ([2]; 48 h after injection, 0.025 μg): 64
ratio vs. blood, Adrenal ([2]; 48 h after injection, 0.1 μg): 26
ratio vs. blood, Colon ([2]; 48 h after injection, 0.1 μg): 73
ratio vs. blood, Pancreas ([2]; 48 h after injection, 0.1 μg): 856
ratio vs. blood, Stomach ([2]; 48 h after injection, 0.1 μg): 50
ratio vs. blood, Adrenal ([2]; 48 h after injection, 0.5 μg): 18
ratio vs. blood, Colon ([2]; 48 h after injection, 0.5 μg): 52
ratio vs. blood, Pancreas ([2]; 48 h after injection, 0.5 μg): 574
ratio vs. blood, Stomach ([2]; 48 h after injection, 0.5 μg): 50
radiochemically stable [3]: > 95%
uptake in the pancreas and tissues of the GI-tract [4]: high and specific uptake
total body retention [5]: 10%
tissue uptake at 48 h ([6]; adrenal, 0.01 ug): 0.029 %ID/g
tissue uptake at 48 h ([6]; adrenal, 0.025 ug): 0.03 %ID/g
tissue uptake at 48 h ([6]; adrenal, 0.1 ug): 0.022 %ID/g
tissue uptake at 48 h ([6]; adrenal, 0.5 ug): 0.014 %ID/g
tissue uptake at 48 h ([6]; blood, 0.01 ug): 0.0009 %ID/g
tissue uptake at 48 h ([6]; blood, 0.025 ug): 0.001 %ID/g
tissue uptake at 48 h ([6]; blood, 0.5 ug): 0.0008 %ID/g
tissue uptake at 48 h ([6]; blood, iv, 0.1 ug): 0.0009 %ID/g
tissue uptake at 48 h ([6]; bombesin receptor positive tissues): 0.025 %ID/g
tissue uptake at 48 h ([6]; colon, 0.01 ug): 0.072 %ID/g
tissue uptake at 48 h ([6]; colon, 0.025 ug): 0.063 %ID/g
tissue uptake at 48 h ([6]; colon, 0.1 ug): 0.061 %ID/g
tissue uptake at 48 h ([6]; colon, 0.5 ug): 0.036 %ID/g
tissue uptake at 48 h ([6]; pancreas, 0.025 ug): 1.2 %ID/g
tissue uptake at 48 h ([6]; pancreas, 0.1 ug): 0.72 %ID/g
tissue uptake at 48 h ([6]; pancreas, 0.5 ug): 0.43 %ID/g
tissue uptake at 48 h ([6]; stomach, 0.01 ug): 0.035 %ID/g
tissue uptake at 48 h ([6]; stomach, 0.025 ug): 0.065 %ID/g
tissue uptake at 48 h ([6]; stomach, 0.1 ug): 0.042 %ID/g
tissue uptake at 48 h ([6]; stomach, 0.5 ug): 0.036 %ID/g
clearance of radioactivity from the blood compartment (dynamic gamma camera): rapid clearance
urinary excretion (in 1 h): 35%
urinary excretion (in 20 h): 70%
IC50 [7]: 8 nM

pGlu-Gln-Arg-Tyr-Gly-Asn-Gln-Trp-Ala-Val-Gly-His-Leu-Met-NH2 [[^125I-Tyr^4] bombesin]
% Positive ([8]; Breast Cancer, 95 samples): 69%
Number Positive ([8]; Breast Cancer, 95 samples): 66
% Positive [8, 9]: 100%
Number Positive [8, 9]: 5
% Positive ([8]; Colon Cancer, 18 samples): 6%
Number Positive ([8]; Colon Cancer, 18 samples): 1
% Positive ([8]; Gastric Cancer, 27 samples): 0%
Number Positive ([8]; Gastric Cancer, 27 samples): 0
% Positive ([8]; Gastrinomas, 4 samples): 100%
Number Positive ([8]; Gastrinomas, 4 samples): 4
% Positive ([8]; Glioblastomas, 4 samples): 100%
Number Positive ([8]; Glioblastomas, 4 samples): 4
% Positive ([8]; Melanomas, 8 samples): 12%
Number Positive ([8]; Melanomas, 8 samples): 1
% Positive [8, 10]: 0%
Number Positive [8, 10]: 0
% Positive ([8]; Pancreatic Cancer, 28 samples): 0%
Number Positive ([8]; Pancreatic Cancer, 28 samples): 0
% Positive [8, 11]: 100%
Number Positive [8, 11]: 5
% Positive ([8]; Prostate Cancer, 28 samples): 100%
Number Positive ([8]; Prostate Cancer, 28 samples): 28
% Positive [8, 12]: 20%
Number Positive [8, 12]: 2
% Positive [8, 13]: 33%
Number Positive [8, 13]: 1
